EC50 and IC50 data for 34 compounds are collected here from the Kinase Knowledgebase extract (Sharma et al. 2016).

In experiment [1] the target is PIK3CA (human) (UniProt P42336). In words: Inhibition of A2780 Cell Proliferation.
The target is the same in experiment [2]. Put plainly: Inhibition of PIK3CA Kinase Activity.

PIK3CA (human), sequence (P42336 whole entry, looked up): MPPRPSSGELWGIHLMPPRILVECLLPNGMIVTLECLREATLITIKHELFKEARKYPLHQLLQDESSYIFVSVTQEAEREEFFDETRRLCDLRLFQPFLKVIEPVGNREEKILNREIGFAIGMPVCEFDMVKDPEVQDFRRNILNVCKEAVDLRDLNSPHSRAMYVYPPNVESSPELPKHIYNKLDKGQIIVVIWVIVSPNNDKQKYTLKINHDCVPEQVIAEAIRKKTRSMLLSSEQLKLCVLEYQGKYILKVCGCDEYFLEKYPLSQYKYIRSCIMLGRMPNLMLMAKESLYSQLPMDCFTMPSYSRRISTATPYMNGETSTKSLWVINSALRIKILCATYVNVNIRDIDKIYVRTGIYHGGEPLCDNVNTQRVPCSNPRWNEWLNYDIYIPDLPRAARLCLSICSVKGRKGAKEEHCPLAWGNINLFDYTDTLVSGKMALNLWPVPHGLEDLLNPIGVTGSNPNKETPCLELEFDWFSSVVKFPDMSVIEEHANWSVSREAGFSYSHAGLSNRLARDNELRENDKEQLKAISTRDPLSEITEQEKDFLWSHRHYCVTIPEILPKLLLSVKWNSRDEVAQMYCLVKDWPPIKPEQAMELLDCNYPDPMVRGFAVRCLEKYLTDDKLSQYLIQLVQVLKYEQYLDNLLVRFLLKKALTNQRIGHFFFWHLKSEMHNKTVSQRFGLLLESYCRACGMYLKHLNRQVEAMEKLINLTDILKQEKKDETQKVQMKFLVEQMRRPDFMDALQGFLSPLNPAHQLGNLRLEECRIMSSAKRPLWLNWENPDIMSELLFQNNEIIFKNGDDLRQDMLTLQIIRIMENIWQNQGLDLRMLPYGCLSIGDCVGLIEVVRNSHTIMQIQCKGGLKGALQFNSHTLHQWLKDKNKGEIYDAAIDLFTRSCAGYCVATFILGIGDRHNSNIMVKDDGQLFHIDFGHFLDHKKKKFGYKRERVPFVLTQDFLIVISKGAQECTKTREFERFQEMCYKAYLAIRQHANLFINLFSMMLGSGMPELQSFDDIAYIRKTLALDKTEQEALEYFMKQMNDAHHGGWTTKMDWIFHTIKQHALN

As to `CC(=O)Nc1cn2c(C)c(-c3cnc(N)c(OCC(F)(F)F)n3)ccc2n1`, the concentration giving a half-maximal response (EC50) in experiment [1] was less than 10000 nM. This compound showed an IC50 in experiment [2] of less than 1000 nM.

In turn, `C/C=C\c1c(NC(C)=O)nc2ccc(-c3cnc(N)c(C(F)(F)F)c3)cn12` showed an EC50 in experiment [1] of less than 25000 nM. This compound also showed an IC50 in experiment [2] of less than 1000 nM.

`CC(=O)Nc1cn2cc(-c3cnc(N)c(C(F)(F)F)c3)cc(F)c2n1` came in with an EC50 in experiment [1] of less than 10000 nM. Further, the IC50 in experiment [2] was less than 1000 nM.

In experiment [1], `Nc1ncc(-c2ccc3nc(NC(=O)Cc4cccc5ccccc45)cn3c2)cc1C(F)(F)F` returned an EC50 of less than 1000 nM. In experiment [2], the IC50 was less than 1000 nM.

Consider `COCCOc1nc(-c2ccc3nc(NC(=O)COC)cn3c2)cnc1N`, for which the concentration giving a half-maximal response (EC50) in experiment [1] is less than 10000 nM. For the same compound, the IC50 in experiment [2] was less than 1000 nM.

For `C[C@@H](N)C(=O)Nc1cn2nc(-c3cnc(N)c(C(F)(F)F)c3)ccc2n1`, in experiment [1], the concentration for a half-maximal effect (EC50) is less than 10000 nM. Also, the IC50 in experiment [2] was less than 1000 nM.

In experiment [1], `CC(=O)Nc1cn2cc(-c3cnc(N)c(Cl)c3)ccc2n1` gave a 50% effective concentration (EC50) of less than 10000 nM. The same compound gave an IC50 in experiment [2] of less than 1000 nM.

Turning to `CC(=O)Nc1cn2cc(-c3cnc(N)c(-c4ccccc4N4CCOCC4)c3)ccc2n1`, the EC50 in experiment [1] is less than 1000 nM. The compound also yielded an IC50 in experiment [2] of less than 1000 nM.

The compound `CC(=O)Nc1nc2ccc(-c3cnc(N)c(C(F)(F)F)c3)cn2c1C#Cc1ccccn1` gave an EC50 in experiment [1] of less than 10000 nM. Moreover, the IC50 in experiment [2] was less than 1000 nM.

With `Nc1ncc(-c2ccc3nc(NC(=O)CCO)cn3c2)cc1C(F)(F)F`, the EC50 in experiment [1] is less than 10000 nM. The compound also had an IC50 in experiment [2] of less than 1000 nM.

On to `N#Cc1ccc(C(=O)Nc2cn3cc(-c4cnc(N)c(C(F)(F)F)c4)ccc3n2)cc1`, for which, in experiment [1], the EC50 was less than 25000 nM. In addition, the 50% inhibitory concentration (IC50) in experiment [2] is less than 1000 nM.

Compound `COc1ccc(CC(=O)Nc2cn3cc(-c4cnc(N)c(C(F)(F)F)c4)ccc3n2)cc1OC` registered an EC50 in experiment [1] of less than 10000 nM. Moreover, the IC50 in experiment [2] is less than 1000 nM.

`CC(=O)Nc1cn2cc(-c3cnc(N)c(C(=O)N4CCN(C(=O)OC(C)(C)C)CC4)c3)ccc2n1`: the EC50 in experiment [1] was less than 25000 nM. Further, the IC50 in experiment [2] was less than 1000 nM.

In experiment [1], `COc1ccccc1-c1cc(-c2ccc3nc(NC(C)=O)cn3n2)cnc1N` yielded a half-maximal effective concentration (EC50) of less than 10000 nM. In experiment [2], this compound gave a concentration for half-maximal inhibition (IC50) of less than 1000 nM.

For `CC(C)(C)OC(=O)N1CCN(c2ccc(C(=O)Nc3cn4cc(-c5cnc(N)c(C(F)(F)F)c5)ccc4n3)cn2)CC1`, the EC50 in experiment [1] was less than 1000 nM. The half-maximal inhibitory concentration (IC50) in experiment [2] is less than 1000 nM.

Take `CCN(CC)CC#Cc1c(NC(C)=O)nc2ccc(-c3cnc(N)c(C(F)(F)F)c3)cn12`: the EC50 in experiment [1] was less than 10000 nM. The same compound yielded a half-maximal inhibitory concentration (IC50) in experiment [2] of less than 1000 nM.

Turning to `Nc1ncc(-c2ccc3nc(NC(=O)N4CCCC4C(F)(F)F)cn3c2)cc1C(F)(F)F` (stereo not drawn), the concentration for a half-maximal effect (EC50) in experiment [1] is less than 10000 nM. Besides, the IC50 in experiment [2] is less than 1000 nM.

Regarding `CC(=O)Nc1cn2cc(-c3cnc(N)c(OC4CNC4)n3)ccc2n1`, the EC50 in experiment [1] was less than 25000 nM. This compound displayed an IC50 in experiment [2] of less than 1000 nM.

`CC(C)(C)OC(=O)NCC(=O)Nc1cn2nc(-c3cnc(N)c(C(F)(F)F)c3)ccc2n1` registered an EC50 in experiment [1] of less than 10000 nM. Besides, the IC50 in experiment [2] was less than 1000 nM.

In turn, `CC(=O)Nc1nc2ccc(-c3cnc(N)c(C(F)(F)F)c3)cn2c1C#Cc1ccccc1` showed a 50% effective concentration (EC50) in experiment [1] of less than 10000 nM. In experiment [2], this compound displayed an IC50 of less than 1000 nM.

The compound `Nc1ccc(-c2ccc3nc(NC(=O)CN4CCOCC4)sc3c2)cn1` displayed a 50% effective concentration (EC50) in experiment [1] of less than 25000 nM. In experiment [2], the IC50 is less than 1000 nM.

In experiment [1], `Nc1ncc(-c2ccc3nc(NC(=O)CN4CCCCC4)cn3n2)cc1C(F)(F)F` displayed an EC50 of less than 10000 nM. The compound further showed an IC50 in experiment [2] of less than 1000 nM.

`Nc1ncc(-c2ccc3nc(NC(=O)c4ccc(N5CCNCC5)nc4)cn3c2)cc1C(F)(F)F` had an EC50 in experiment [1] of less than 10000 nM. The IC50 in experiment [2] is less than 1000 nM.

On to `CC(=O)Nc1cn2cc(-c3ccc(N)nc3C)ccc2n1`, for which, in experiment [1], the EC50 was less than 25000 nM. Further, the IC50 in experiment [2] was less than 1000 nM.

As for `CC(=O)Nc1cn2cc(-c3cnc(N)c(-c4ccc(F)cc4)c3)ccc2n1`, the EC50 in experiment [1] was less than 25000 nM. In addition, in experiment [2], the IC50 is less than 1000 nM.

In experiment [1], `CC(=O)Nc1cn2cc(-c3cnc(N)c(N4CCOCC4)n3)ccc2n1` gave a concentration for a half-maximal effect (EC50) of less than 10000 nM. In experiment [2], this compound returned an IC50 of less than 1000 nM.

Compound `CCOCC(=O)Nc1cn2cc(-c3cnc(N)c(C(F)(F)F)c3)ccc2n1` had an EC50 in experiment [1] of less than 10000 nM. In experiment [2], the IC50 is less than 1000 nM.

As for `CCOC(=O)CC(=O)Nc1cn2cc(-c3cnc(N)c(C(F)(F)F)c3)ccc2n1`, the half-maximal effective concentration (EC50) in experiment [1] was less than 10000 nM. In experiment [2], the IC50 was less than 1000 nM.

In the case of `CON=Cc1cc(-c2ccc3nc(NC(C)=O)cn3c2)cnc1N`, the EC50 in experiment [1] was less than 25000 nM. The compound also registered an IC50 in experiment [2] of less than 1000 nM.

In experiment [1], `Nc1ncc(-c2ccc3nc(NC(=O)[C@H]4CCCN4)cn3n2)cc1C(F)(F)F` gave an EC50 of less than 25000 nM. In addition, the concentration for half-maximal inhibition (IC50) in experiment [2] is less than 1000 nM.

Consider `Nc1ncc(-c2ccc3nc(NC(=O)CO[C@H]4CCNC4)cn3n2)cc1C(F)(F)F`, for which the EC50 in experiment [1] is less than 1000 nM. For the same compound, the IC50 in experiment [2] was less than 1000 nM.

In the case of `CC(=O)Nc1cn2cc(-c3cnc(N)c(C(=O)NCCNS(C)(=O)=O)n3)ccc2n1`, the concentration for a half-maximal effect (EC50) in experiment [1] was less than 25000 nM. Besides, the IC50 in experiment [2] is less than 1000 nM.

For the compound `CN(C)C1CCN(C(=O)Nc2cn3cc(-c4cnc(N)c(C(F)(F)F)c4)ccc3n2)C1` (stereo not drawn), the EC50 in experiment [1] is less than 10000 nM. Further, in experiment [2], the IC50 is less than 1000 nM.

`CC(=O)Nc1cn2cc(-c3cnc(N)c(-c4ccccc4C(F)(F)F)c3)ccc2n1` registered an EC50 in experiment [1] of less than 10000 nM. In experiment [2], the IC50 was less than 1000 nM.
